Assay results published in patent US20260216294A1, “BETA 2-ADRENERGIC RECEPTOR AGONISTS FOR TREATMENT OR PREVENTION OF MUSCLE WASTING” (ATROGI AB, priority 2023, published 2026).

Tests used:
L6-myotubes [1] = test: Glucose uptake in differentiated L6-myotubes (Biological Example 2); format: cell-based; details: for Emax at 10 µM: read-out: Biological example 2 (GU)
Procedure: (§1) Compounds described in publications referenced and incorporated herein were screened in accordance with the procedures outlined in Biological example 2 and Biological example 3.
Differentiated L6-myotubes were serum-starved overnight in medium containing 0.5% fatty-acid free BSA and stimulated with isoprenaline or the test compound, with a final concentration of 1×10^−5 M. After 1 h 40 min the cells were washed with warm glucose free medium or PBS twice and another portion of agonist was added to the glucose free medium. After 20 min the cells were exposed to 50 nM ^3H-2-deoxyglucose for 10 min before washed with ice cold glucose free medium or PBS three times and lysed with 0.2 M NaOH, 400 μL/well, for 1 h at 60° C. The cell lysate was mixed with 4 mL scintillation buffer (Emulsifier Safe, Perkin Elmer) and the radioactivity was detected in a […] (Tri-Carb 4810TR, Perkin Elmer).

L6-myotubes [2] = test: Measurement of intracellular cAMP levels in differentiated L6-myotubes (Biological Example 3); format: cell-based; details: intracellular cAMP, compound at 10 μM relative to isoproterenol at 10 μM; for Emax at 10 µM: 0.25 h
Procedure: as §1
Differentiated L6-myotubes were serum-starved overnight and stimulated with isoprenaline or the test compound with a final concentration of 1×10^−5 M, for 15 min in stimulation buffer (HBSS supplemented with 1% BSA, 5 mM HEPES and 1 mM IBMX, pH 7.4). The medium was aspirated and 100 μL of 95% EtOH was added to each well of the 24-well plate and cells were kept at −20° C. overnight. The EtOH was allowed to evaporate and 500 μL of lysis buffer (1% BSA, 5 mM HEPES and 0.3% Tween-20, pH 7.4) was added to each well. The plate was kept at −80° C. for 30 min and then at −20° C. until the day of detection when the samples were thawed. Intracellular cAMP levels were detected using an alpha screen cAMP kit (6760635D from Perkin Elmer).

[3] = glucose uptake, compound at 10 μM relative to isoproterenol at 10 μM
[4] = glucose uptake in differentiated L6-myotubes, compound at 10 μM, activity relative to isoproterenol at 10 μM

| SMILES | Emax at 10 µM (L6-myotubes [1]; [3]) [%] | Emax at 10 µM (L6-myotubes [2]) [%] | other results |
| --- | --- | --- | --- |
| C[C@H]1CC[C@@H]([C@H](O)c2ccccc2)N1 (racemic) [Compound 38, Racemic mixture of (R)-[(2S,5S)-5-methyl-2-pyrrolidinyl]phenylmeth anol and (S)-[(2R,5R)-5-methyl-2-pyrrolidinyl]] phenylmethanol] | 25 to 50 | < 25 | – |
| C[C@H]1CC[C@@H]([C@@H](O)c2ccccc2)N1 (racemic) [Compound 39, Racemic mixture of (R)-[(2R,5R)-5-methyl-2-pyrrolidinyl] phenylmethanol and (S)-[(2S,5S)-5-methyl-2-pyrrolidinyl] phenylmethanol] | 50 to 75 | < 25 | – |
| C[C@H]1CC[C@@H]([C@H](O)c2cccc(O)c2)N1 (racemic) [Compound 40, Racemic mixture of m-{(R)-[(2S,5S)-5-methyl-2-pyrrolidinyl] hydroxymethyl} phenol and m-{(S)-[(2R,5R)-5-methyl-2-pyrrolidinyl] hydroxymethyl} phenol] | 50 to 75 | < 25 | – |
| C[C@H]1CC[C@@H]([C@@H](O)c2cccc(O)c2)N1 (racemic) [Compound 41, Racemic mixture of m-{(R)-[(2R,5R)-5-methyl-2-pyrrolidinyl] hydroxymethyl}phenol and m-{(S)-[(2S,5S)-5-methyl-2-pyrrolidinyl] hydroxymethyl}phenol] | > 75 | < 25 | – |
| CCC[C@@H]1CC[C@H](C(O)c2cccc(O)c2)N1 (stereo in doubt) [Compound 57, m-{(R)-[(2R,5R)-5-propyl-2-pyrrolidinyl] hydroxymethyl}phenol] | – | – | Biological example 2 (GU) (L6-myotubes [1]; [3]): +++ (If a compound at 10 μM shows activity of more than 75% of that of isoproterenol at 10 μM, the activity is denoted with +++); Biological example 3 (CAMP) (L6-myotubes [2]): ++ (if it is between 75 and 50% it is denoted with ++) |
| CC1(C)CCC([C@H](O)c2ccccc2F)N1 (stereo in doubt) [Compound 175, (R)-[(R)-5,5-dimethyl-2-pyrrolidinyl](o-fluorophenyl)methanol] | > 75 | 25 to 50 | – |
| CCCCNCC(O)c1ccc(O)cc1 (stereo not shown) [Compound 1, 2-(butylamino)-1-(p-hydroxyphenyl)-1-ethanol] | > 75 | – | – |
| CCCCNCC(O)c1cccc(Cl)c1 (stereo not shown) [Compound 2, 2-(butylamino)-1-(m-chlorophenyl)-1-ethanol] | 25 to 50 | < 25 | – |
| Oc1ccc(C(O)CNCC2CC2)cc1 (stereo not shown) [Compound 3, p-{2-[(cyclopropylmethyl)amino]-1-hydroxyethyl}phenol] | 50 to 75 | < 25 | – |
| CC(C)(C)NCC(O)c1ccc(O)cc1 (stereo not shown) [Compound 4, 2-(tert-butylamino)-1-(p-hydroxyphenyl)-1-ethanol] | > 75 | 25 to 50 | – |
| CCC(C)NCC(O)c1ccc(O)cc1 (stereo not shown) [Compound 5, 2-(sec-butylamino)-1-(p-hydroxyphenyl)-1-ethanol] | 50 to 75 | < 25 | – |
| Oc1ccc(C(O)CNCC2CCCCC2)cc1 (stereo not shown) [Compound 6, 2-[(cyclohexylmethyl)amino]-1-(p-hydroxyphenyl)-1-ethanol] | > 75 | < 25 | – |
| OC(CNCC1CCCCC1)c1ccccc1 (stereo not shown) [Compound 7, 2-[(cyclohexylmethyl)amino]-1-phenyl-1-ethanol] | 25 to 50 | < 25 | – |
| CCCC(C)NCC(O)c1ccc(O)cc1 (stereo not shown) [Compound 8, 1-(p-hydroxyphenyl)-2-(1-methylbutylamino)-1-ethanol] | 50 to 75 | 25 to 50 | – |
| CCCCNC[C@H](O)c1ccc(O)cc1 [Compound 9, (R)-2-(butylamino)-1-(p-hydroxyphenyl)-1-ethanol] | > 75 | < 25 | – |
| Oc1ccc(C(O)CNC2CCCC2)cc1 (stereo not shown) [Compound 10, p-[2-(cyclopentylamino)-1-hydroxyethyl]phenol] | 50 to 75 | < 25 | – |
| Oc1ccc(C(O)CNC23CC4CC(CC(C4)C2)C3)cc1 (stereo not shown) [Compound 11, p-[2-(1-adamantanylamino)-1-hydroxyethyl]phenol] | 25 to 50 | < 25 | – |

| SMILES | Emax at 10 µM (L6-myotubes [1]; [3]) [%] | Emax at 10 µM (L6-myotubes [2]) [%] | other results |
| --- | --- | --- | --- |
| CCCCNC(C)C(O)c1ccc(O)cc1 (stereo not shown) [Compound 12, 2-(butylamino)-1-(p-hydroxyphenyl)-1-propanol] | 50 to 75 | < 25 | – |
| CCCC(C)NC(C)C(O)c1ccc(O)cc1 (stereo not shown) [Compound 13, 1-(p-hydroxyphenyl)-2-(1-methylbutylamino)-1-propanol] | 50 to 75 | < 25 | – |
| CCCC(C)NCC(O)c1cccc(O)c1 (stereo not shown) [Compound 14, 1-(m-hydroxyphenyl)-2-(1-methylbutylamino)-1-ethanol] | > 75 | < 25 | – |
| CCCCNCC(O)c1cccc(O)c1 (stereo not shown) [Compound 15, 2-(butylamino)-1-(m-hydroxyphenyl)-1-ethanol] | 50 to 75 | < 25 | – |
| Oc1ccc(C(O)CNCCC2CCCCC2)cc1 (stereo not shown) [Compound 16, 2-(2-cyclohexylethylamino)-1-(p-hydroxyphenyl)-1-ethanol] | 25 to 50 | < 25 | – |
| CCCCCCNCC(O)c1ccc(O)cc1 (stereo not shown) [Compound 17, 2-(hexylamino)-1-(p-hydroxyphenyl)-1-ethanol] | 25 to 50 | < 25 | – |
| CCCCCCCCNCC(O)c1ccc(O)cc1 (stereo not shown) [Compound 18, 1-(p-hydroxyphenyl)-2-(octylamino)-1-ethanol] | 25 to 50 | < 25 | – |
| CCCC(C)NCC(O)c1ccc(O)c(Cl)c1 (stereo not shown) [Compound 19, 1-(3-chloro-4-hydroxyphenyl)-2-(1-methylbutylamino)-1-ethanol] | 25 to 50 | < 25 | – |
| CCCCNCC(O)c1ccc(O)c(Cl)c1 (stereo not shown) [Compound 20, 2-(butylamino)-1-(3-chloro-4-hydroxyphenyl)-1-ethanol] | 25 to 50 | < 25 | – |
| Oc1ccc(C(O)CNCCCC2CCCCC2)cc1 (stereo not shown) [Compound 21, 2-(3-cyclohexylpropylamino)-1-(p-hydroxyphenyl)-1-ethanol] | > 75 | < 25 | – |
| CCCC(C)NCC(O)c1cc(Cl)c(N)c(Cl)c1 (stereo not shown) [Compound 22, 1-(4-amino-3,5-dichlorophenyl)-2-(1-methylbutylamino)-1-ethanol] | > 75 | 50 to 75 | – |
| CCCCNCC(O)c1cc(Cl)c(O)c(Cl)c1 (stereo not shown) [Compound 23, 2-(butylamino)-1-(3,5-dichloro-4-hydroxyphenyl)-1-ethanol] | < 25 | < 25 | – |
| Oc1ccc(C(O)CNCCCC(F)(F)F)cc1 (stereo not shown) [Compound 31, 1-(p-hydroxyphenyl)-2-(4,4,4-trifluorobutylamino)-1-ethanol] | 50 to 75 | – | – |
| CN([C@H]1CC[C@H](CC(C)(C)NC[C@H](O)c2cccc(F)c2)CC1)S(C)(=O)=O [Compound 499, (R)-2-{1,1-dimethyl-2-[(1r,4R)-4-(N-mesyl-N-methylamino)cyclohexyl]ethylamino}-1-(m-fluorophenyl)-1-ethanol] | – | – | Emax at 10 µM (L6-myotubes [1]; [4]): 25 to 50% |
| O[C@@H](c1ccccc1F)C12CCC(CCc3cccnc3)(CC1)N2 [Compound 547, (S)-(o-fluorophenyl){4-[2-(3-pyridyl)ethyl]-7-azabicyclo[[2.2.1]]hept-1-yl}methanol] | – | – | Emax at 10 µM (L6-myotubes [1]; [4]): > 75% |
| CC(C)NCC(O)c1ccc(O)c(O)c1 (stereo not shown) [isoprenaline, reference compound] | – | – | glucose uptake (L6-myotubes [1]; L6-myotubes, FIGS. 2a-2d): full glucose uptake response |
